Experiments:
[1] = target: Genome polyprotein (dengue virus type 2) (UniProt P29990); test: Inhibition of dengue2 virus NS2B/NS3 protease activity for Boc-Gly-Arg-Arg-MCA cleavage at 120 ppm
[2] = target: Genome polyprotein (dengue virus type 2) (UniProt P29990); test: Inhibition of dengue2 virus NS2B/NS3 protease activity for Boc-Gly-Arg-Arg-MCA cleavage at 240 ppm
[3] = target: Genome polyprotein (dengue virus type 2) (UniProt P29990); test: Inhibition of dengue2 virus NS2B/NS3 protease activity for Boc-Gly-Arg-Arg-MCA cleavage at 400 ppm
[4] = target: Genome polyprotein (dengue virus type 2, UniProt P29990); test: Inhibition of dengue2 virus NS3 protease
[5] = target: Genome polyprotein (dengue virus type 2) (UniProt P29990); test: Inhibition of dengue2 virus NS2B/NS3 protease activity for Boc-Gly-Arg-Arg-MCA cleavage at 40 ppm
[6] = target: Genome polyprotein (dengue virus type 2) (UniProt P29990); test: Inhibition of dengue2 virus NS2B/NS3 protease activity for Boc-Gly-Arg-Arg-MCA cleavage at 80 ppm
[7] = target: Genome polyprotein (dengue virus type 2) (UniProt P29990); test: Inhibition of dengue2 virus NS2B/NS3 protease activity for Boc-Gly-Arg-Arg-MCA cleavage at 160 ppm
[8] = target: Genome polyprotein (dengue virus type 2) (UniProt P29990); test: Inhibition of dengue2 virus NS2B/NS3 protease activity for Ac-Thr-Arg-Arg-MCA cleavage at 120 ppm
[9] = target: Genome polyprotein (dengue virus type 2) (UniProt P29990); test: Inhibition of dengue2 virus NS2B/NS3 protease activity for Ac-Thr-Arg-Arg-MCA cleavage at 240 ppm
[10] = target: Genome polyprotein (dengue virus type 2) (UniProt P29990); test: Inhibition of dengue2 virus NS2B/NS3 protease activity for Ac-Thr-Arg-Arg-MCA cleavage at 400 ppm

With `COc1cc(O)cc(O)c1C(=O)/C=C/c1ccccc1` [CARDAMOMIN] the inhibition [1] was 39.4%, the inhibition [2] was 50.1% and the inhibition [3] was 71.3%. The Ki [4] was 377 µM.

`COc1cc(O)c(C(=O)[C@@H]2[C@H](CC=C(C)C)C(C)=CC[C@H]2c2ccccc2)c(O)c1` [PANDURATIN A] was tested, and the inhibition [5] was 27.1%, the inhibition [6] was 66.7% and the inhibition [1] was 87.7%. It also gave an inhibition [7] of 93.7%, an inhibition [2] of 92.2% and an inhibition [3] of 99.8%. For the same compound, the inhibition [8] was 47.5%, the inhibition [9] was 59.6% and the inhibition [10] was 90.4%. For the same compound, the Ki [4] was 25 µM.

`O=C1C[C@@H](c2ccccc2)Oc2cc(O)cc(O)c21` gave an inhibition [1] of 30.1%, an inhibition [2] of 47.3% and an inhibition [3] of 56.1%.

For `CC(C)=CC[C@@H]1C(C)=CC[C@@H](c2ccccc2)[C@@H]1C(=O)c1c(O)cc(O)cc1O` [4-HYDROXYPANDURATIN A], the inhibition [5] was 52%, the inhibition [6] was 78.1% and the inhibition [1] was 87.6%. The inhibition [7] was 96%, the inhibition [2] was 97.3% and the inhibition [3] was 99.8%. For the same compound, the inhibition [8] was 90.4%, the inhibition [9] was 96.1% and the inhibition [10] was 99.2%. It also gave a Ki [4] of 21 µM.

`COc1cc(O)c2c(c1)O[C@H](c1ccccc1)CC2=O` [PINOSTROBIN] was tested, and the inhibition [8] was 76.7%, the inhibition [9] was 80.7% and the inhibition [10] was 88.7%. For the same compound, the Ki [4] was 345 µM.

Reference: ChEMBL document CHEMBL1148500, “Inhibitory activity of cyclohexenyl chalcone derivatives and flavonoids of fingerroot, Boesenbergia rotunda (L.), towards dengue-2 virus NS3 protease” (Bioorg Med Chem Lett, 2006)
